# Results reported in patent US8709451B2, “Stable nanoemulsions for ultrasound-mediated drug delivery and imaging” (University of Utah Research Foundation, priority 2010, dated 2014).
# Legend:
# [1] = test system: A2780 ovarian cancer cells; experiment: Confocal imaging of DOX uptake by substrate-attached cells without ultrasound; format: cell-based; settings: no ultrasound, 20 μg/mL DOX
# Method: A2780 cells were grown on cover glass in an 8 well cover glass chamber (LabTek chambered cover glass, NUNC, Rochester, N.Y.), and incubated with either, DOX dissolved in PBS, DOX-loaded 1.4% PEG-PCL micelle solution, or DOX-loaded 1% PFCE or PFP emulsions. Hoechst 33258 (Sigma Aldrich, St Louis, Mo.) stain was used to identify the nuclei of the A2780 cancer cells. Confocal fluorescent images of the cells were obtained using inverted confocal microscope (Olympus IX81, Olympus America Inc., Center Valley, Pa.); and the images were processed using ImageJ software. Emission filters of 570 nm for DOX and 480 nm for Hoechst were selected for imaging. In some experiments, DAPI was added to stain the cells before incubation with DOX and ultrasound exposure as discussed below.
# A2780 drug sensitive cells, grown on chambered cover slip were incubated with different DOX formulations and confocal fluorescent images were obtained (FIGS. 14 and 15). Different image slices of the cell layer attached to the cover slip were recorded at an incremental step of 0.5 μm depth from the bottom to top of the cell layer (z-direction). The images recorded were stacked in z-direction and processed using ImageJ. The brightness and contrast ratios of magnified insets of the images were modified to reveal the intracellular distribution of fluorescence. […]
# DOX fluorescence inside the cells was characterized by the R/G ratio where R is the intensity of red color and G is that of green color at the same region of interest (ROI) inside the cells. This ratio is used because DOX absorbs green light that ignites its red fluorescence. The R and G values and ratios were measured using ImageJ software.
# The red/green (R/G) ratio of the fluorescence inside the cells and R/G ratio of the background fluorescence from the cover slip were measured. […] The cells incubated with either PFCE or PFP droplets have lower fluorescence (R/G ratios of 0.31 and 0.14 for PFCE and PFP respectively) than the cells incubated with DOX in micellar solution (R/G ratio of 0.63). […]
# [2] = test system: A2780 ovarian cancer cells; experiment: Sonication of suspended cells with DOX formulations, confocal imaging; format: cell-based; settings: 3-MHz CW ultrasound, DOX 10 μg/mL
# Method: A2780 cells were lifted off the culture T-flasks with 1× Trypsin (0.25% trypsin, 0.02% EDTA, Sigma Aldrich, St Louis, Mo.). The cells were resuspended in media. This suspension was mixed 2:1 volume ratio with DOX-containing formulations with typical cell concentrations of 5.7×10^6 cells/mL. Two types of DOX solutions in PBS were used: hydrophilic hydrochloride salt DOX-HCl (20 μg/mL) or deprotonated DOX; the concentration in PBS was 20 μg/mL for either molecule. DOX formulations included deprotonated DOX incorporated in 1.4% PEG-PCL micellar solution or DOX incorporated in 1% PFCE or PFP PEG-PCL emulsion; DOX concentration was the same as in PBS solutions (20 μg/mL). […] Pressure was measured using ONDA needle hydrophone (Onda HNR-0500) (calibrated in October, 2009) placed in front of the probe with a distance of 0.5 cm from the probe. […] After ultrasound treatments, a droplet of the cell suspension was placed on a glass slide, and the fluorescence inside the cells was observed and quantified using confocal microscope as described above. […]
smiles,measurement,setting,value
"COc1cccc2c1C(=O)c1c(O)c3c(c(O)c1C2=O)C[C@@](O)(C(=O)CO)C[C@@H]3O[C@H]1C[C@H](N)[C@H](O)[C@H](C)O1.Cl [hydrophilic DOX, doxorubicin]",DOX penetration into cell nuclei,[1],red fluorescence in the nuclei
"COc1cccc2c1C(=O)c1c(O)c3c(c(O)c1C2=O)C[C@@](O)(C(=O)CO)C[C@@H]3O[C@H]1C[C@H](N)[C@H](O)[C@H](C)O1 [deprotonated DOX, doxorubicin]",DOX penetration into cell nuclei,[1],did not get into the nuclei
same,cellular uptake of DOX,[1],low cellular uptake
same,effect of ultrasound on DOX penetration into cell nuclei,[2],marginal
